According to patent publication US20140093884A1, “Process for Identifying Novel Anti-Inflammatory Molecules with Reduced Direct Transrepression of Genes Induced by Glucocorticoids” (UNIVERSITE DE STRASBOURG, priority 2011, published 2014):

What was measured:
Type in all cases: in vivo, mouse
Design in all cases: key: ♦: not repressed
[1] = tested on: IR0, IR1 and IR2 nGRE containing genes; assay: Q-RT-PCR of IR nGRE-containing genes in epidermis of 18 hr-Dex-treated WT mice
From the text: (§1) Real time PCR. Total RNA was reverse transcribed using hexamers, followed by Q-PCR, as reported (Li et al., 2005).
(§2) A comparison of mouse and human orthologues indicated conservations of such IR elements (51 IR0, 379 IR1 and 566 IR2). Within these orthologue gene families, 35 IR0, 50 IR1 and 50 IR2 nGRE-containing mouse genes (Table 4) were randomly chosen to investigate whether (i) they were expressed in epidermis, intestinal epithelium and liver, (ii) their expression was inhibited by the GC agonist Dexamethasone (Dex), (iii) this inhibition could be relieved by RU486 co-administration, and also if it could be correlated with GR and corepressor binding to their putative IR nGREs.

[2] = tested on: IR0, IR1 and IR2 nGRE containing genes; assay: Q-RT-PCR of IR nGRE-containing genes in intestinal epithelium of 18 hr-Dex-treated WT mice
From the text: as §1, §2

[3] = tested on: IR0, IR1 and IR2 nGRE containing genes; assay: Q-RT-PCR of IR nGRE-containing genes in liver of 18 hr-Dex-treated WT mice
From the text: as §1, §2

C[C@@H]1C[C@H]2[C@@H]3CCC4=CC(=O)C=C[C@]4(C)[C@@]3(F)[C@@H](O)C[C@]2(C)[C@@]1(O)C(=O)CO [Dex, dexamethasone]
♦: AIP transcript level, not repressed ([1]; IR0 nGRE gene) | DDI1 transcript level, not repressed ([1]; IR0 nGRE gene) | DLAT transcript level, not repressed ([1]; IR0 nGRE gene) | FBXL18 transcript level, not repressed ([1]; IR0 nGRE gene) | FSD2 transcript level, not repressed ([1]; IR0 nGRE gene) | GPIHBP1 transcript level, not repressed ([1]; IR0 nGRE gene) | HCST transcript level, not repressed ([1]; IR0 nGRE gene) | KLF5 transcript level, not repressed ([1]; IR0 nGRE gene) | LAG3 transcript level, not repressed ([1]; IR0 nGRE gene) | MTG1 transcript level, not repressed ([1]; IR0 nGRE gene) | NEU1 transcript level, not repressed ([1]; IR0 nGRE gene) | PTMS transcript level, not repressed ([1]; IR0 nGRE gene) | SLC25A5 transcript level, not repressed ([1]; IR0 nGRE gene) | TCF25 transcript level, not repressed ([1]; IR0 nGRE gene) | TRPM7 transcript level, not repressed ([1]; IR0 nGRE gene) | ZBED4 transcript level, not repressed ([1]; IR0 nGRE gene) | ZFP113 transcript level, not repressed ([1]; IR0 nGRE gene) | ZFP467 transcript level, not repressed ([1]; IR0 nGRE gene) | ZFP784 transcript level, not repressed ([1]; IR0 nGRE gene) | AGPAT2 transcript level, not repressed ([1]; IR1 nGRE gene) | AKAP6 transcript level, not repressed ([1]; IR1 nGRE gene) | ARHGAP23 transcript level, not repressed ([1]; IR1 nGRE gene) | ATN1 transcript level, not repressed ([1]; IR1 nGRE gene) | B4GALT2 transcript level, not repressed ([1]; IR1 nGRE gene) | BCL2L1 transcript level, not repressed ([1]; IR1 nGRE gene) | BEST2 transcript level, not repressed ([1]; IR1 nGRE gene) | BMP3 transcript level, not repressed ([1]; IR1 nGRE gene) | CACNA2D3 transcript level, not repressed ([1]; IR1 nGRE gene) | CADM4 transcript level, not repressed ([1]; IR1 nGRE gene) | CDK9 transcript level, not repressed ([1]; IR1 nGRE gene) | CTSA transcript level, not repressed ([1]; IR1 nGRE gene) | DYNLT3 transcript level, not repressed ([1]; IR1 nGRE gene) | GNG10 transcript level, not repressed ([1]; IR1 nGRE gene) | GPR108 transcript level, not repressed ([1]; IR1 nGRE gene) | GPR153 transcript level, not repressed ([1]; IR1 nGRE gene) | JUND transcript level, not repressed ([1]; IR1 nGRE gene) | KLC3 transcript level, not repressed ([1]; IR1 nGRE gene) | LRRC transcript level, not repressed ([1]; IR1 nGRE gene) | MT2 transcript level, not repressed ([1]; IR1 nGRE gene) | MTHFR transcript level, not repressed ([1]; IR1 nGRE gene) | MXI1 transcript level, not repressed ([1]; IR1 nGRE gene) | NKRF transcript level, not repressed ([1]; IR1 nGRE gene) | SCP2 transcript level, not repressed ([1]; IR1 nGRE gene) | SREPF1 transcript level, not repressed ([1]; IR1 nGRE gene) | SSTR4 transcript level, not repressed ([1]; IR1 nGRE gene) | STAB1 transcript level, not repressed ([1]; IR1 nGRE gene) | USF1 transcript level, not repressed ([1]; IR1 nGRE gene) | COL4A3BP transcript level, not repressed ([1]; IR2 nGRE gene) | ELMOD3 transcript level, not repressed ([1]; IR2 nGRE gene) | FKBP2 transcript level, not repressed ([1]; IR2 nGRE gene) | FOXQ1 transcript level, not repressed ([1]; IR2 nGRE gene) | GGT1 transcript level, not repressed ([1]; IR2 nGRE gene) | GIT2 transcript level, not repressed ([1]; IR2 nGRE gene) | GLU1 transcript level, not repressed ([1]; IR2 nGRE gene) | GOT1 transcript level, not repressed ([1]; IR2 nGRE gene) | GPR97 transcript level, not repressed ([1]; IR2 nGRE gene) | GRASP transcript level, not repressed ([1]; IR2 nGRE gene) | HSPB2 transcript level, not repressed ([1]; IR2 nGRE gene) | POMGNT1 transcript level, not repressed ([1]; IR2 nGRE gene) | PRKRA transcript level, not repressed ([1]; IR2 nGRE gene) | RORA transcript level, not repressed ([1]; IR2 nGRE gene) | SLC2A8 transcript level, not repressed ([1]; IR2 nGRE gene) | TGM6 transcript level, not repressed ([1]; IR2 nGRE gene) | AIP transcript level, not repressed ([2]; IR0 nGRE gene) | ANO4 transcript level, not repressed ([2]; IR0 nGRE gene) | CITED1 transcript level, not repressed ([2]; IR0 nGRE gene) | DLAT transcript level, not repressed ([2]; IR0 nGRE gene) | FBXL18 transcript level, not repressed ([2]; IR0 nGRE gene) | GPIHBP1 transcript level, not repressed ([2]; IR0 nGRE gene) | KLF5 transcript level, not repressed ([2]; IR0 nGRE gene) | LAG3 transcript level, not repressed ([2]; IR0 nGRE gene) | MAPK4 transcript level, not repressed ([2]; IR0 nGRE gene) | MTG1 transcript level, not repressed ([2]; IR0 nGRE gene) | NDUFA4L2 transcript level, not repressed ([2]; IR0 nGRE gene) | NEU1 transcript level, not repressed ([2]; IR0 nGRE gene) | PPIL5 transcript level, not repressed ([2]; IR0 nGRE gene) | PTMS transcript level, not repressed ([2]; IR0 nGRE gene) | SLC25A5 transcript level, not repressed ([2]; IR0 nGRE gene) | SP9 transcript level, not repressed ([2]; IR0 nGRE gene) | SPARC transcript level, not repressed ([2]; IR0 nGRE gene) | TCF25 transcript level, not repressed ([2]; IR0 nGRE gene) | TRPM7 transcript level, not repressed ([2]; IR0 nGRE gene) | ZBED4 transcript level, not repressed ([2]; IR0 nGRE gene) | ZFP113 transcript level, not repressed ([2]; IR0 nGRE gene) | ZFP467 transcript level, not repressed ([2]; IR0 nGRE gene) | ZFP784 transcript level, not repressed ([2]; IR0 nGRE gene) | ADRA2A transcript level, not repressed ([2]; IR1 nGRE gene) | AGPAT2 transcript level, not repressed ([2]; IR1 nGRE gene) | ATN1 transcript level, not repressed ([2]; IR1 nGRE gene) | BCL2L1 transcript level, not repressed ([2]; IR1 nGRE gene) | BMP3 transcript level, not repressed ([2]; IR1 nGRE gene) | CADM4 transcript level, not repressed ([2]; IR1 nGRE gene) | CDH11 transcript level, not repressed ([2]; IR1 nGRE gene) | CDK9 transcript level, not repressed ([2]; IR1 nGRE gene) | CTSA transcript level, not repressed ([2]; IR1 nGRE gene) | DYNLT3 transcript level, not repressed ([2]; IR1 nGRE gene) | GPR108 transcript level, not repressed ([2]; IR1 nGRE gene) | GPR153 transcript level, not repressed ([2]; IR1 nGRE gene) | KLC3 transcript level, not repressed ([2]; IR1 nGRE gene) | LRRC transcript level, not repressed ([2]; IR1 nGRE gene) | MTHFR transcript level, not repressed ([2]; IR1 nGRE gene) | MXI1 transcript level, not repressed ([2]; IR1 nGRE gene) | NKRF transcript level, not repressed ([2]; IR1 nGRE gene) | SCP2 transcript level, not repressed ([2]; IR1 nGRE gene) | SOCS3 transcript level, not repressed ([2]; IR1 nGRE gene) | SREPF1 transcript level, not repressed ([2]; IR1 nGRE gene) | SSTR4 transcript level, not repressed ([2]; IR1 nGRE gene) | STAB1 transcript level, not repressed ([2]; IR1 nGRE gene) | COL4A3BP transcript level, not repressed ([2]; IR2 nGRE gene) | DPAGT1 transcript level, not repressed ([2]; IR2 nGRE gene) | ELMOD3 transcript level, not repressed ([2]; IR2 nGRE gene) | ERP27 transcript level, not repressed ([2]; IR2 nGRE gene) | FSTL1 transcript level, not repressed ([2]; IR2 nGRE gene) | GIT2 transcript level, not repressed ([2]; IR2 nGRE gene) | GLU1 transcript level, not repressed ([2]; IR2 nGRE gene) | GOT1 transcript level, not repressed ([2]; IR2 nGRE gene) | GPR68 transcript level, not repressed ([2]; IR2 nGRE gene) | GUK1 transcript level, not repressed ([2]; IR2 nGRE gene) | HSPB2 transcript level, not repressed ([2]; IR2 nGRE gene) | HSPB3 transcript level, not repressed ([2]; IR2 nGRE gene) | ITPKA transcript level, not repressed ([2]; IR2 nGRE gene) | MUC20 transcript level, not repressed ([2]; IR2 nGRE gene) | PRKRA transcript level, not repressed ([2]; IR2 nGRE gene) | SLC2A8 transcript level, not repressed ([2]; IR2 nGRE gene) | SLC25A34 transcript level, not repressed ([2]; IR2 nGRE gene) | SOCS1 transcript level, not repressed ([2]; IR2 nGRE gene) | TGM6 transcript level, not repressed ([2]; IR2 nGRE gene) | TNFRSF25 transcript level, not repressed ([2]; IR2 nGRE gene) | AIP transcript level, not repressed ([3]; IR0 nGRE gene) | CITED1 transcript level, not repressed ([3]; IR0 nGRE gene) | DLAT transcript level, not repressed ([3]; IR0 nGRE gene) | FBXL18 transcript level, not repressed ([3]; IR0 nGRE gene) | GPIHBP1 transcript level, not repressed ([3]; IR0 nGRE gene) | INHBE transcript level, not repressed ([3]; IR0 nGRE gene) | MTG1 transcript level, not repressed ([3]; IR0 nGRE gene) | NMYC transcript level, not repressed ([3]; IR0 nGRE gene) | PTMS transcript level, not repressed ([3]; IR0 nGRE gene) | TCF25 transcript level, not repressed ([3]; IR0 nGRE gene) | ZBED4 transcript level, not repressed ([3]; IR0 nGRE gene) | ZFP113 transcript level, not repressed ([3]; IR0 nGRE gene) | ZFP784 transcript level, not repressed ([3]; IR0 nGRE gene) | ADRA2A transcript level, not repressed ([3]; IR1 nGRE gene) | AGPAT2 transcript level, not repressed ([3]; IR1 nGRE gene) | BMP3 transcript level, not repressed ([3]; IR1 nGRE gene) | CADM4 transcript level, not repressed ([3]; IR1 nGRE gene) | CDH11 transcript level, not repressed ([3]; IR1 nGRE gene) | CDK9 transcript level, not repressed ([3]; IR1 nGRE gene) | CTSA transcript level, not repressed ([3]; IR1 nGRE gene) | DYNLT3 transcript level, not repressed ([3]; IR1 nGRE gene) | GPR108 transcript level, not repressed ([3]; IR1 nGRE gene) | GPR153 transcript level, not repressed ([3]; IR1 nGRE gene) | HSD11B2 transcript level, not repressed ([3]; IR1 nGRE gene) | KLC3 transcript level, not repressed ([3]; IR1 nGRE gene) | LRRC transcript level, not repressed ([3]; IR1 nGRE gene) | MT2 transcript level, not repressed ([3]; IR1 nGRE gene) | MTHFR transcript level, not repressed ([3]; IR1 nGRE gene) | MXI1 transcript level, not repressed ([3]; IR1 nGRE gene) | SCP2 transcript level, not repressed ([3]; IR1 nGRE gene) | SGK3 transcript level, not repressed ([3]; IR1 nGRE gene) | SREPF1 transcript level, not repressed ([3]; IR1 nGRE gene) | SSTR4 transcript level, not repressed ([3]; IR1 nGRE gene) | STAB1 transcript level, not repressed ([3]; IR1 nGRE gene) | CCR10 transcript level, not repressed ([3]; IR2 nGRE gene) | COL4A3BP transcript level, not repressed ([3]; IR2 nGRE gene) | DPAGT1 transcript level, not repressed ([3]; IR2 nGRE gene) | ELMOD3 transcript level, not repressed ([3]; IR2 nGRE gene) | ERP27 transcript level, not repressed ([3]; IR2 nGRE gene) | FOXJ1 transcript level, not repressed ([3]; IR2 nGRE gene) | FOXQ1 transcript level, not repressed ([3]; IR2 nGRE gene) | GGT1 transcript level, not repressed ([3]; IR2 nGRE gene) | GOT1 transcript level, not repressed ([3]; IR2 nGRE gene) | GPR97 transcript level, not repressed ([3]; IR2 nGRE gene) | GRASP transcript level, not repressed ([3]; IR2 nGRE gene) | HSPB2 transcript level, not repressed ([3]; IR2 nGRE gene) | HSPB3 transcript level, not repressed ([3]; IR2 nGRE gene) | MUC20 transcript level, not repressed ([3]; IR2 nGRE gene) | POMGNT1 transcript level, not repressed ([3]; IR2 nGRE gene) | PRKRA transcript level, not repressed ([3]; IR2 nGRE gene) | SOCS1 transcript level, not repressed ([3]; IR2 nGRE gene) | TNFRSF25 transcript level, not repressed ([3]; IR2 nGRE gene)
